Like-named read-outs stand apart in the source and are kept apart here. Marks after values point to notes of the source that are not given here.
Columns and labels:
[1] = Artificial lipid membrane permeability measurement (96-well filter plate, absorbance); assay type: in vitro ADME; parameters: Permeability coefficient (P), Example 2 / Permeability coefficient (P), Comparative Example 1: unit: cm/s; details: 0.5 mmol/L sample; for Papp at 0.5 mmol/L: PAMPA; for Permeability coefficient (P), Comparative Example 1: membrane of Comparative Example 1 (phosphatidylcholine, cholesterol and 1,9-decadiene 2:1:97)
[2] = literature data, References *1 to *4; cited from earlier work
[3] = membrane of Example 3 (phosphatidylcholine and 1,6-heptadiene 2:98), buffer pH 6.5 to pH 7.0, read-out: Permeability coefficient (P), Example 3
[4] = membrane of Example 4 (phosphatidylcholine and 1,7-octadiene 2:98), buffer pH 6.5 to pH 7.0, read-out: Permeability coefficient (P), Example 4
[5] = membrane of Example 5 (phosphatidylcholine and 1,8-nonadiene 2:98), buffer pH 6.5 to pH 7.0, read-out: Permeability coefficient (P), Example 5
[6] = membrane of Comparative Example 2 (phosphatidylcholine and 1,9-decadiene 2:98), buffer pH 6.5 to pH 7.0, read-out: Permeability coefficient (P), Comparative Example 2
[7] = membrane of Example 1 (phosphatidylcholine 2, cholesterol 1, stearic acid 0.2 %, w/w in 1,7-octadiene), pH 7.0, read-out: Permeability coefficient (P), Example 1
[8] = membrane of Example 2 (phosphatidylcholine 0.75, phosphatidylethanolamine 0.75, phosphatidylserine 0.25, phosphatidylinositol 0.25, cholesterol 1 %, w/w in 1,7-octadiene), pH 6.5, read-out: Permeability coefficient (P), Example 2
[9] = membrane of Example 2 (phosphatidylcholine 0.75, phosphatidylethanolamine 0.75, phosphatidylserine 0.25, phosphatidylinositol 0.25, cholesterol 1 %, w/w in 1,7-octadiene), pH 6.5

Row | SMILES | Papp at 0.5 mmol/L [1, 3] [×10⁻⁶ cm/s] | Papp at 0.5 mmol/L [1, 4] [×10⁻⁶ cm/s] | Papp at 0.5 mmol/L [1, 5] [×10⁻⁶ cm/s] | Papp at 0.5 mmol/L [1, 6] [×10⁻⁶ cm/s] | Papp at 0.5 mmol/L [1, 7] [×10⁻⁶ cm/s] | Papp at 0.5 mmol/L [1, 8] [×10⁻⁶ cm/s] | Permeability coefficient (P), Comparative Example 1 ([1]; pH 6.5) | Permeability coefficient (P), Example 2 [1, 9] | Human intestinal absorption (Fa, %) [2]
1 | NS(=O)(=O)c1cc2c(cc1Cl)NCNS2(=O)=O [Hydrochlorothiazide] | 5.86 | 1.52 | 1.82 | 0.751 | 1.34 | 1.55 | 8.64E-07 |  | 
2 | C[C@H]1c2cccc(O)c2C(=O)C2=C(O)[C@]3(O)C(=O)C(C(N)=O)=C(O)[C@@H](N(C)C)[C@@H]3[C@@H](O)[C@@H]21 [Doxycycline] |  |  |  |  | 7.07 |  | 1.52E-06 | 2.35E-05 | 95*^3%
3 | O=C1CC[C@@]2(O)[C@H]3Cc4ccc(O)c5c4[C@@]2(CCN3CC2CC2)[C@H]1O5 [Naltrexone] |  |  |  |  | 11.2 |  | 9.61E-06 | 4.50E-06 | 
4 | Nc1ccn([C@@H]2O[C@H](CO)[C@@H](O)[C@@H]2O)c(=O)n1 [Cytarabine] |  |  |  |  | 0.889 | 0.0387 | 3.87E-08 |  | 
5 | CCN1CCCC1CNC(=O)c1cc(S(N)(=O)=O)ccc1OC (stereo not shown) [Sulpiride] |  |  |  |  | 1.34 |  | 8.33E-08 | 2.23E-06 | 
6 | CO/N=C(\C(=O)N[C@@H]1C(=O)N2C(C(=O)O)=C(CSc3nc(=O)c(=O)[nH]n3C)CS[C@H]12)c1csc(N)n1 [Ceftriaxone] |  |  |  |  | 1.37 |  | 1.66E-08 | 2.25E-07 | 1*^4%
7 | N=C(N)NC(=O)c1nc(Cl)c(N)nc1N [Amiloride] |  |  |  |  | 2.69 |  | 6.10E-08 | 6.73E-07 | 50*^3%
8 | CN(C)[C@@H]1C(O)=C(C(N)=O)C(=O)[C@@]2(O)C(O)=C3C(=O)c4c(O)cccc4[C@@](C)(O)[C@H]3[C@H](O)[C@@H]12 [Oxytetracycline] |  |  |  |  | 3.31 |  | 8.31E-07 | 5.87E-06 | 60*^3%
9 | O=C(O)c1cc(/N=N/c2ccc(S(=O)(=O)Nc3ccccn3)cc2)ccc1O [Sulfasalazine] |  |  |  |  | 3.24 |  | 3.12E-07 | 1.07E-06 | 65*^1%
10 | NS(=O)(=O)c1cc2c(cc1Cl)N=CNS2(=O)=O [Chlorothiazide] |  |  |  |  | 2.24 |  | 4.98E-08 | 2.71E-07 | 
11 | CC[C@H](C)C(=O)O[C@H]1C[C@H](O)C=C2C=C[C@H](C)[C@H](CC[C@@H](O)C[C@@H](O)CC(=O)O)[C@H]21 [Pravastatin] |  |  |  |  | 2.69 |  | 7.21E-08 | 6.12E-07 | 34*^1%
12 | CC(=O)Nc1ccc(O)cc1 [Acetaminophen] |  |  |  |  | 8.17 |  | 4.98E-08 | 1.79E-06 | 80*^1%
13 | CNC(=C[N+](=O)[O-])NCCSCc1ccc(CN(C)C)o1 [Ranitidine] |  |  |  |  | 1.22 |  | 1.34E-07 | 2.19E-06 | 
14 | CO/N=C(\C(=O)N[C@@H]1C(=O)N2C(C(=O)O)=C(COC(N)=O)CS[C@H]12)c1ccco1 [Cefuroxime] |  |  |  |  | 0.16 | 0.0443 | 2.76E-08 |  | 5*^1%
15 | N=C(N)N/N=C/c1c(Cl)cccc1Cl [Guanabenz] |  |  |  |  | 19.5 |  | 4.14E-06 | 1.04E-05 | 75*^1%

Continued, in another order:

Row | Papp at 0.5 mmol/L [1, 3] [×10⁻⁶ cm/s] | Papp at 0.5 mmol/L [1, 4] [×10⁻⁶ cm/s] | Papp at 0.5 mmol/L [1, 5] [×10⁻⁶ cm/s] | Papp at 0.5 mmol/L [1, 6] [×10⁻⁶ cm/s] | Papp at 0.5 mmol/L [1, 7] [×10⁻⁶ cm/s] | Papp at 0.5 mmol/L [1, 8] [×10⁻⁶ cm/s] | Permeability coefficient (P), Comparative Example 1 ([1]; pH 6.5) | Permeability coefficient (P), Example 2 [1, 9] | SMILES | Human intestinal absorption (Fa, %) [2]
16 |  |  |  |  | 1.01 |  | 4.36E-07 | 1.53E-06 | CC(=O)Nc1ccc(OCC(O)CNC(C)C)cc1 (stereo not shown) [Practolol] | 
17 |  |  |  |  | 9.42 |  | 7.49E-07 | 6.88E-06 | COCCc1ccc(OCC(O)CNC(C)C)cc1 (stereo not shown) [Metoprolol] | 
18 |  |  |  |  | 3.28 |  | 5.26E-07 |  | CC(C)(C)NCC(O)COc1cccc2c1CC(O)C(O)C2 (stereo not shown) [Nadolol] | 35*^1%
19 |  |  |  |  | 11 |  | 2.71E-08 | 7.94E-06 | CC(C)NCC(O)COc1cccc2[nH]ccc12 (stereo not shown) [Pindolol] | 90*^1%
20 |  |  |  |  | 9.13 |  | 1.05E-06 | 1.19E-05 | CC(C)(C)NC[C@H](O)COc1nsnc1N1CCOCC1 [Timolol] | 90*^1%
21 |  |  |  |  | 4.45 |  | 1.91E-07 | 3.67E-06 | CCCC(=O)Nc1ccc(OCC(O)CNC(C)C)c(C(C)=O)c1 (stereo not shown) [Acebutolol] | 90*^1%
22 | 50.5 | 13.6 | 16.8 | 9.22 |  |  |  |  | CC(C(=O)O)c1cccc(C(=O)c2ccccc2)c1 (stereo not shown) [Ketoprofen] | 
23 |  |  |  |  | 0.802 | 1.37 | 1.09E-06 |  | CCOC(=O)[C@H](CCc1ccccc1)N[C@@H](C)C(=O)N1CCC[C@H]1C(=O)O [Enalapril] | 65*^3%
24 | 43.8 | 21.5 | 24.6 | 12.5 |  |  |  |  | CC(C)NCC(O)COc1cccc2ccccc12 (stereo not shown) [Propranolol] | 

— patent publication US6861260B2, “Lipid membrane, method for measuring membrane permeability, and method for screening” (Chugai Seiyaku Kabushiki Kaisha, priority 2000, dated 2005)
